The results in this text go back to US20240182487A1, “MACROCYCLES AND THEIR USE” (BLOSSOMHILL THERAPEUTICS, INC., priority 2020, published 2024).

Chain of EGFR (Δ746-750) (P00533 other isoform, or with tags, fused parts or gaps del 1-668/del 746-750 limits assumed): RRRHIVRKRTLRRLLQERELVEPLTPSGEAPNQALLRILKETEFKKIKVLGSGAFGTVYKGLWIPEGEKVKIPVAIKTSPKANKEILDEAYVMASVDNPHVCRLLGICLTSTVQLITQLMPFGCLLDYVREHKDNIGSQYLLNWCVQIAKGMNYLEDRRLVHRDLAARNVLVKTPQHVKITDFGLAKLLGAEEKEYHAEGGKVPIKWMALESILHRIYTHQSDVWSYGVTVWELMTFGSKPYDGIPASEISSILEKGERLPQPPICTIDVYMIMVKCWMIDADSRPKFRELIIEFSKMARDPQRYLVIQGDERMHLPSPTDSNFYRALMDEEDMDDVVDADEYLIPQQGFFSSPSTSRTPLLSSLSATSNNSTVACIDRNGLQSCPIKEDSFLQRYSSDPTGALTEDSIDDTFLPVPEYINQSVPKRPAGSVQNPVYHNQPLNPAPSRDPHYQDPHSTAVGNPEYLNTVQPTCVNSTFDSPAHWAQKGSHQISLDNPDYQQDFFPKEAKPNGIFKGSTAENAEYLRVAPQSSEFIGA

This experiment concerns the target EGFR (Δ746-750) (Homo sapiens (Human), UniProt P00533, DEL746-750). The experiment can be described thus: HotSpot radiometric kinase assay, EGFR Δ746-750. The class given is biochemical. Conditions: radiometric filter-binding, 10 μM ATP.
As to `CN1CC[C@@H](NC(=O)c2ccc3c(c2)OCCCOc2c(cnn2C)-c2cc4c(n[nH]c4cn2)/C=C/3)C1` [Cpd. 82, (11E)-1-methyl-N-[(3R)-1-methylpyrrolidin-3-yl]-19,20-dihydro-1H,8H,18H-10,7,4-(ethan[1]yl[1,2]diylidene)pyrazolo[3,4-f][1,5,9,12,13]benzodioxatriazacyclooctadecine-15-carboxamide], the IC50 is 28.3 nM. This counts as double-digit nanomolar.
To `COC(=O)c1ccc2c(c1)OCCCOc1c(cnn1C)-c1cc3c(n[nH]c3cn1)/C=C/2` [Cpd. 67, methyl (11E)-1-methyl-19,20-dihydro-1H,8H,18H-10,7,4-(ethan[1]yl[1,2]diylidene)pyrazolo[3,4-f][1,5,9,12,13]benzodioxatriazacyclooctadecine-15-carboxylate] belongs 1530 nM.
To `CCNC(=O)c1ccc2c(c1)OCCOCc1c(cnn1C)-c1cc3c(n[nH]c3cn1)/C=C/2` [Cpd. 84, (11E)-N-ethyl-1-methyl-1,18,19,21-tetrahydro-8H-10,7,4-(ethan[1]yl[1,2]diylidene)pyrazolo[3,4-f][1,4,9,12,13]benzodioxatriazacyclooctadecine-15-carboxamide] belongs 240 nM; to `CN1CC(NC(=O)c2ccc3c(c2)OCCCOc2c(cnn2C)-c2cc4c(n[nH]c4cn2)/C=C/3)C1` [Cpd. 83, (11E)-1-methyl-N-(1-methylazetidin-3-yl)-19,20-dihydro-1H,8H,18H-10,7,4-(ethan[1]yl[1,2]diylidene)pyrazolo[3,4-f][1,5,9,12,13]benzodioxatriazacyclooctadecine-15-carboxamide], 34.4 nM.
For the compound `CN(C)CCCNC(=O)c1ccc2c(c1)/C=C/c1n[nH]c3cnc(cc13)-c1cnn(C)c1OCCCO2` [Cpd. 70, (11E)-N-[3-(dimethylamino)propyl]-1-methyl-19,20-dihydro-1H,8H,18H-10,7,4-(ethan[1]yl[1,2]diylidene)pyrazolo[3,4-f][1,5,9,12,13]benzodioxatriazacyclooctadecine-14-carboxamide], the IC50 was determined as 2.9 nM. This IC50 lies about 12-fold lower than the previous one.
As to `CN1CCC(NC(=O)c2ccc3c(c2)/C=C/c2n[nH]c4cnc(cc24)-c2cnn(C)c2COCCO3)CC1` [Cpd. 93, (11E)-1-methyl-N-(1-methylpiperidin-4-yl)-1,18,19,21-tetrahydro-8H-10,7,4-(ethan[1]yl[1,2]diylidene)pyrazolo[3,4-f][1,4,9,12,13]benzodioxatriazacyclooctadecine-14-carboxamide], the IC50 stood at 13.6 nM. Compared with the last compound, the IC50 is about 4.7-fold higher.
For `CN1CCC(NC(=O)c2ccc3c(c2)OCCCOc2c(cnn2C)-c2cc4c(n[nH]c4cn2)/C=C/3)CC1` [Cpd. 78, (11E)-1-methyl-N-(1-methylpiperidin-4-yl)-19,20-dihydro-1H,8H,18H-10,7,4-(ethan[1]yl[1,2]diylidene)pyrazolo[3,4-f][1,5,9,12,13]benzodioxatriazacyclooctadecine-15-carboxamide], the IC50 worked out at 5.3 nM.
`Cn1ncc2c1OCCCOc1ccc(C(=O)N3CCCC3)cc1/C=C/c1n[nH]c3cnc-2cc13` [Cpd. 72, [(11E)-1-methyl-19,20-dihydro-1H,8H,18H-10,7,4-(ethan[1]yl[1,2]diylidene)pyrazolo[3,4-f][1,5,9,12,13]benzodioxatriazacyclooctadecin-14-yl](pyrrolidin-1-yl)methanone] returned an IC50 of 18.3 nM.
The figure for `CCNC(=O)c1ccc2c(c1)/C=C/c1n[nH]c3cnc(cc13)-c1cnn(C)c1COCCO2` [Cpd. 89, (11E)-N-ethyl-1-methyl-1,18,19,21-tetrahydro-8H-10,7,4-(ethan[1]yl[1,2]diylidene)pyrazolo[3,4-f][1,4,9,12,13]benzodioxatriazacyclooctadecine-14-carboxamide] is 23.8 nM; for `CN1CCN(C(=O)c2ccc3c(c2)/C=C/c2n[nH]c4cnc(cc24)-c2cnn(C)c2COCCO3)CC1` [Cpd. 96, (4-methylpiperazin-1-yl)[(11E)-1-methyl-1,18,19,21-tetrahydro-8H-10,7,4-(ethan[1]yl[1,2]diylidene)pyrazolo[3,4-f][1,4,9,12,13]benzodioxatriazacyclooctadecin-14-yl]methanone] it is 740 nM; for `CN1CC[C@H](NC(=O)c2ccc3c(c2)OCCCOc2c(cnn2C)-c2cc4c(n[nH]c4cn2)/C=C/3)C1` [Cpd. 88, (11E)-1-methyl-N-[(3S)-1-methylpyrrolidin-3-yl]-19,20-dihydro-1H,8H,18H-10,7,4-(ethan[1]yl[1,2]diylidene)pyrazolo[3,4-f][1,5,9,12,13]benzodioxatriazacyclooctadecine-15-carboxamide] it is 24.6 nM.
`Cn1ncc2c1OCCCOc1ccc(F)cc1/C=C/c1n[nH]c3cnc-2cc13` [Cpd. 100, (11E)-14-fluoro-1-methyl-19,20-dihydro-1H,8H,18H-10,7,4-(ethan[1]yl[1,2]diylidene)pyrazolo[3,4-f][1,5,9,12,13]benzodioxatriazacyclooctadecine] registered an IC50 of 24 nM.
For the compound `COC(=O)c1ccc2c(c1)/C=C/c1n[nH]c3cnc(cc13)-c1cnn(C)c1COCCO2` [Cpd. 75, methyl (11E)-1-methyl-1,18,19,21-tetrahydro-8H-10,7,4-(ethan[1]yl[1,2]diylidene)pyrazolo[3,4-f][1,4,9,12,13]benzodioxatriazacyclooctadecine-14-carboxylate], the IC50 was found to be 51 nM.
The figure for `CC(C)NC(=O)c1ccc2c(c1)OCCCOc1c(cnn1C)-c1cc3c(n[nH]c3cn1)/C=C/2` [Cpd. 77, (11E)-1-methyl-N-(propan-2-yl)-19,20-dihydro-1H,8H,18H-10,7,4-(ethan[1]yl[1,2]diylidene)pyrazolo[3,4-f][1,5,9,12,13]benzodioxatriazacyclooctadecine-15-carboxamide] is 34.6 nM; for `CN1CCC(NC(=O)c2ccc3c(c2)/C=C/c2n[nH]c4cnc(cc24)-c2cnn(C)c2OCCCO3)CC1` [Cpd. 97, (11E)-1-methyl-N-(1-methylpiperidin-4-yl)-19,20-dihydro-1H,8H,18H-10,7,4-(ethan[1]yl[1,2]diylidene)pyrazolo[3,4-f][1,5,9,12,13]benzodioxatriazacyclooctadecine-14-carboxamide] it is 9.7 nM; for `CN1CC[C@@H](NC(=O)c2ccc3c(c2)OCCOCc2c(cnn2C)-c2cc4c(n[nH]c4cn2)/C=C/3)C1` [Cpd. 87, (11E)-1-methyl-N-[(3R)-1-methylpyrrolidin-3-yl]-1,18,19,21-tetrahydro-8H-10,7,4-(ethan[1]yl[1,2]diylidene)pyrazolo[3,4-f][1,4,9,12,13]benzodioxatriazacyclooctadecine-15-carboxamide] it is 34.6 nM.
The figure for `CN(C)CCNC(=O)c1ccc2c(c1)OCCCOc1c(cnn1C)-c1cc3c(n[nH]c3cn1)/C=C/2` [Cpd. 74, (11E)-N-[2-(dimethylamino)ethyl]-1-methyl-19,20-dihydro-1H,8H,18H-10,7,4-(ethan[1]yl[1,2]diylidene)pyrazolo[3,4-f][1,5,9,12,13]benzodioxatriazacyclooctadecine-15-carboxamide] is 4 nM.
The figure for `CNC(=O)c1ccc2c(c1)/C=C/c1n[nH]c3cnc(cc13)-c1cnn(C)c1OCCCO2` [Cpd. 86, (11E)-N,1-dimethyl-19,20-dihydro-1H,8H,18H-10,7,4-(ethan[1]yl[1,2]diylidene)pyrazolo[3,4-f][1,5,9,12,13]benzodioxatriazacyclooctadecine-14-carboxamide] is 15.6 nM; for `CN1CCC(CNC(=O)c2ccc3c(c2)/C=C/c2n[nH]c4cnc(cc24)-c2cnn(C)c2OCCCO3)CC1` [Cpd. 76, (11E)-1-methyl-N-[(1-methylpiperidin-4-yl)methyl]-19,20-dihydro-1H,8H,18H-10,7,4-(ethan[1]yl[1,2]diylidene)pyrazolo[3,4-f][1,5,9,12,13]benzodioxatriazacyclooctadecine-14-carboxamide] it is 2.2 nM.
For the compound `Cn1ncc2c1OCCCOc1cc(C(=O)O)ccc1/C=C/c1n[nH]c3cnc-2cc13` [Cpd. 73, (11E)-1-methyl-19,20-dihydro-1H,8H,18H-10,7,4-(ethan[1]yl[1,2]diylidene)pyrazolo[3,4-f][1,5,9,12,13]benzodioxatriazacyclooctadecine-15-carboxylic acid], the IC50 stood at 35.8 nM.
To `CN(C)CCCNC(=O)c1ccc2c(c1)/C=C/c1n[nH]c3cnc(cc13)-c1cnn(C)c1COCCO2` [Cpd. 91, (11E)-N-[3-(dimethylamino)propyl]-1-methyl-1,18,19,21-tetrahydro-8H-10,7,4-(ethan[1]yl[1,2]diylidene)pyrazolo[3,4-f][1,4,9,12,13]benzodioxatriazacyclooctadecine-14-carboxamide] belongs 19.7 nM.
The compound `COC(=O)c1ccc2c(c1)OCCOCc1c(cnn1C)-c1cc3c(n[nH]c3cn1)/C=C/2` [Cpd. 69, methyl (11E)-1-methyl-1,18,19,21-tetrahydro-8H-10,7,4-(ethan[1]yl[1,2]diylidene)pyrazolo[3,4-f][1,4,9,12,13]benzodioxatriazacyclooctadecine-15-carboxylate] showed an IC50 of 1000 nM.
For the compound `CCc1c2c(nn1C)C(=O)N(C)CCOc1c[nH]c(=O)cc1-c1cc3c(n[nH]c3cn1)/C=C/2` [Cpd. 38, (18E)-17-ethyl-13,16-dimethyl-2,12,13,16-tetrahydro-5,3-(azenometheno)dipyrazolo[3,4-f:3′,4′-j]pyrido[4,3-n][1,4]oxazacyclopentadecine-7,14(8H,11H)-dione], the IC50 turned out to be 964 nM.
With `COC(=O)c1ccc2c(c1)/C=C/c1n[nH]c3cnc(cc13)-c1cnn(C)c1OCCCO2` [Cpd. 68, methyl (11E)-1-methyl-19,20-dihydro-1H,8H,18H-10,7,4-(ethan[1]yl[1,2]diylidene)pyrazolo[3,4-f][1,5,9,12,13]benzodioxatriazacyclooctadecine-14-carboxylate], the IC50 turned out to be 93.3 nM. Compared with the last compound, the IC50 is about 10-fold lower.
Regarding `Cc1nc2cc3c(n[nH]c13)/C=C/c1cc(F)ccc1OCCCOc1c-2cnn1C` [Cpd. 98, (11E)-14-fluoro-1,6-dimethyl-19,20-dihydro-1H,8H,18H-10,7,4-(ethan[1]yl[1,2]diylidene)pyrazolo[3,4-f][1,5,9,12,13]benzodioxatriazacyclooctadecine], the 50% inhibitory concentration (IC50) was 836 nM. Against the preceding compound, the IC50 is about 9-fold higher.

The term IC50 denotes the concentration at which inhibition is half-maximal. A high value points to lower potency.
